Data: patent US20160075991A1, “Process for Preparing Starter Cultures of Lactic Acid Bacteria” (INSTITUT NATIONAL DE LA RECHERCHE, priority 1998, published 2016)

Key:
Assay type in all cases: cell-based
[1] = test system: Lactococcus lactis subsp. cremoris strain MG1363; assay: Culturing in the presence of protoporphyrin IX (Example 1.2); conditions: for Concentration of lactic acid / Final pH / Number of viable cells / OD600 nm: 1% glucose, 24 h
Method: A laboratory medium (M17 supplemented with 1% glucose) is inoculated with the Lacrococcus lactis subsp. cremoris strain MG1363 in the form of a 1/1000 dilution of a saturated culture (prepared at 30° C. with no shaking). The inoculated medium contained or not protoporphyrin IX at a final concentration of 10 μg/ml (a 0.5 mg/ml stock solution is prepared by adding 100 mg of protoporphyin IX to 2 ml of 5N NaOH, to which 198 ml of water is then added; the solution is autoclaved at 120° C. for 20 minutes). For bacteria grown in medium containing protoporphyrin IX, cultures were maintained at 30° C. with shaking (250 rotations per minute) in order to ensure oxygenation, or without shaking as a control. Two other control cultures, without protoporphyin IX or without shaking, were grown at 30° C. in parallel. After 24 h of growth, aliquots are removed to measure the optical density at 600 nm (OD600 nm), the number of viable bacteria, the final pH and the concentration of lactate in the medium.

[2] = test system: Lactococcus lactis subsp. cremoris strain MG1363; assay: Survival of the lactic acid bacteria during storage at 4° C. (Example 3); conditions: for Number of cells per ml: porphyrin compound and aeration, 1% glucose M17, storage at 4° C.
Method: A laboratory medium, i.e. M17 supplemented with 1% of glucose, is inoculated with Lactococcus lactis subsp. cremoris strain MG1363 in the form of a 1/1000 dilution of a saturated culture. The cultures are then divided into two equal parts, and hemin is added to one of these two cultures to give a final concentration of 10 μg/ml. […] Aliquots of the two cultures are removed regularly during the exponential growth phase in order to monitor viability, rate of growth and pH. After 24 h of growth, the cultures are placed (stored) in a 30° C. incubator without shaking, and aliquots are removed every 24 h in order to monitor the viability of the cells. The Lactococcus lactis subsp. cremoris strain MG1363 was cultured as in the experiment described in Example 2, but the storage, which is carried out 24 h after inoculation, is at 4° C. instead of at 30° C.

[3] = test system: Lactococcus lactis subsp. cremoris strain MG1363; assay: Culturing in the presence of chlorophyllin (Example 1.3); conditions: cultures in the presence of chlorophyllin, not shaken
Method: A laboratory medium (M17 supplemented with 1% glucose) is inoculated with the Lactococcus lactis subsp. cremoris strain MG1363 in the form of a 1/1000 dilution of a saturated culture (prepared at 30° C. with no shaking). The inoculated medium contained or not chlorophyllin (a degradation product of chlorophyll) at a final concentration of 10 μg/ml. In order for it to be active, the chlorophyllin was incubated beforehand in an acidic medium and in the presence of traces of iron in order to replace the Cu atom with an Fe atom. This can, for example, be done as follows: a) by incubating a concentrated solution of chlorophyllin for 24 h in a laboratory medium (M17 supplemented with glucose) which was inoculated with 10^6 lactococci per ml and maintained at 30° C. for 24 h. The supernatant containing the chlorophyllin at a concentration of 100 μg/ml is filtered and then added to the culture medium so as to obtain a final concentration of 10 μg/mi. b) by incubating a concentrated solution of chlorophyllin for 24 h in M17 at a pH of between 3 and 5 (acidified with HCl) and at a temperature of 4° C., 30° C. or 60° C. The pH is then readjusted to 7. […] The pH is then readjusted to 7. […]

[4] = with protoporphyrin IX 10 μg/ml and aeration
[5] = with protoporphyrin IX 10 μg/ml but without aeration

`C=CC1=C(C)c2cc3[nH]c(cc4nc(cc5[nH]c(cc1n2)c(C)c5CCC(=O)O)C(CCC(=O)O)=C4C)c(C)c3C=C` [protoporphyrin IX] was tested, and the “production of lactic acid as share of the quantity of sugar added” value ([1]; cells cultured in the presence of protoporphyrin IX and oxygen) was “less than 40%”, the “pH of the culture (remains stable)” value ([1]; protoporphyrin IX and oxygen) was “approximately 5.5” and the “Concentration of lactic acid” value [1, 4] was 1.9 g/L. For the same compound, the “Final pH” value [1, 4] was 5.49, the “Number of viable cells” value [1, 4] was 6.9 ×10^9 and the OD600 nm [1, 4] was 4.6. For the same compound, the “Concentration of lactic acid” value [1, 5] was 8.2 g/L, the “Final pH” value [1, 5] was 4.53 and the “Number of viable cells” value [1, 5] was 2.7 ×10^9. For the same compound, the OD600 nm [1, 5] was 2.5, the survival rate ([2]; after 2 months at 4° C., cultured with porphyrin compound under aeration) was ~1% and the “Number of cells per ml” value ([2]; 0 days after culture) was 6.4 × 10^9 cells per ml. For the same compound, the “Number of cells per ml” value ([2]; 1 day after culture) was 6.2 × 10^9 cells per ml, the “Number of cells per ml” value ([2]; 2 days after culture) was 5.6 × 10^9 cells per ml and the “Number of cells per ml” value ([2]; 3 days after culture) was 5.4 × 10^9 cells per ml. The “Number of cells per ml” value ([2]; 7 days after culture) was 4.0 × 10^9 cells per ml, the “Number of cells per ml” value ([2]; 8 days after culture) was 2.8 × 10^9 cells per ml and the “Number of cells per ml” value ([2]; 9 days after culture) was 1.9 × 10^9 cells per ml. The “Number of cells per ml” value ([2]; 10 days after culture) was 3.9 × 10^8 cells per ml, the “Number of cells per ml” value ([2]; 13 days after culture) was 1.7 × 10^8 cells per ml and the “Number of cells per ml” value ([2]; 15 days after culture) was 6.0 × 10^7 cells per ml. The “Number of cells per ml” value ([2]; 22 days after culture) was 5.9 × 10^7 cells per ml, the “Number of cells per ml” value ([2]; 28 days after culture) was 5.4 × 10^7 cells per ml and the “Number of cells per ml” value ([2]; 36 days after culture) was 5.4 × 10^7 cells per ml. The “Number of cells per ml” value ([2]; 43 days after culture) was 5.3 × 10^7 cells per ml, the “Number of cells per ml” value ([2]; 50 days after culture) was 4.8 × 10^7 cells per ml and the “Number of cells per ml” value ([2]; 57 days after culture) was 5.3 × 10^7 cells per ml.
With chlorophyllin the “variation of OD600 nm and pH from the control” value [3] was “No significant variation from the control”.
